The test system of one test is S. aureus SH1000. Briefly: Planktonic MIC by broth microdilution (BSAC guidelines). It counts as cell-based, Staphylococcus aureus. The procedure:
(§1) Methods: MICs were determined for planktonic cultures by broth microdilution according to British Society for Antimicrobial Chemotherapy (BSAC) guidelines. Biofilm MICs (bMIC) and minimum biofilm eradication concentrations (MBECs) were determined using the Calgary biofilm device. The effect of Compound 10 on the viability of cold culture cells was determined by growing S. aureus SH1000 to early exponential phase at 37° C. and resuspending the cells in pre-chilled media, where they were maintained in the presence and absence of Compound 10 and control agents. The effect of Compound 10 on slow growing cells expressing the stringent response was also determined by growing cultures to early log phase and the stringent response induced by the addition of the isoleucyl-tRNA synthetase inhibitor mupirocin. Compound 10 and control agents were then added and samples recovered for viable cell determinations.

The test system of test [1] is S. aureus SH1000 biofilms. Briefly: Biofilm MIC and minimum biofilm eradication concentration, Calgary Biofilm Device. It counts as cell-based, Staphylococcus aureus. The following applies: for bMIC / MIC: biofilm MIC; for MBEC: minimum biofilm eradication concentration; for MIC: Staphylococcus aureus, SH1000BIOFILMS, read-out: bMIC. On the procedure: as §1
Biofilm MICs and minimum biofilm eradication concentrations (MBEC) were determined in the Calgary Biofilm Device (Nunc Inc, Roskilde, Denmark) as described by Miller et al., 2005. This involves the following steps. Aliquots (200 μL) of exponential phase cultures of strain SH1000 were added to each well of a 96-well microtitre tray. The lid assembly, which has 96 polystyrene pegs corresponding to each well, was then replaced and the system incubated for 24 hours at 37° C. on a rocking platform. Following this a biofilm of approximately 10^7 cfu matured on each peg. The lid was then washed twice in phosphate-buffered saline (PBS) to remove residual planktonic growth and then placed into a microtitre tray with fresh media containing doubling dilutions of the test antibiotic. The system was then incubated for 24 hours at 37° C. on a rocking platform. The MIC was defined as the lowest concentration of antibiotic completely inhibiting visible growth after this incubation. After the MIC was recorded, the lid assembly was again washed twice in PBS to remove planktonic cells and remaining antibiotic and then placed into fresh drug-free media. The system was incubated for a further 24 hours and the MBEC was defined as the lowest concentration of antibiotic completely inhibiting the re-establishment of planktonic growth.

Where [2] appears, read: planktonic S. aureus SH1000 (Table 5).
[3] abbreviates: planktonic S. aureus SH1000 (Table 6).
Where [4] appears, read: S. aureus SH1000, Calgary Biofilm Device, 24 hours (Table 6).
[5] abbreviates: S. aureus SH1000, Calgary device (Example H).
[6] abbreviates: S. aureus SH1000, Calgary Biofilm Device (Table 6).
[7] abbreviates: Staphylococcus aureus, planktonic S. aureus SH1000 (Table 5), read-out: MIC.
[8] abbreviates: 24 h, S. aureus SH1000, Calgary Biofilm Device, 24 hours (Table 6).

The values that follow come from patent US9326511B2, “Methods of inhibiting microbial biofilms” (priority 2008, dated 2016).

Converted amounts (≈) assume the structure as drawn. Read-outs that look alike come from different tables or passages of the source.

As to `CCCCCCCCCCCCCCCC[N+](C)(C)C.[Br-]` [CTAB], the MIC against S. aureus SH1000 (setting [2]) and in the test on S. aureus SH1000 (setting [3]) was 2 µg/mL each time. For the same compound, the bMIC in test [1] (setting [4]) and in test [1] (setting [5]) was 2 µg/mL in each case. The MBEC in test [1] (setting [6]) and in test [1] (setting [5]) was more than 256 µg/mL throughout.

As to `CO/N=C(\C(=O)N[C@@H]1C(=O)N2C(C(=O)O)=C(COC(C)=O)CS[C@H]12)c1csc(N)n1` [Cefotaxime], the MIC in the test on S. aureus SH1000 (setting [7]) amounted to 0.5 µg/mL (≈ 1.1 µM); with S. aureus SH1000 (setting [3]), 0.5 µg/mL (≈ 1.1 µM); in test [1] (setting [8]), 4 µg/mL (≈ 8.78 µM); in test [1] (setting [5]) it was 4 µg/mL (≈ 8.78 µM).

With `[H]/N=C(\N/C(=N/[H])NCCCCCCNC(=N)NC(=N)Nc1ccc(Cl)cc1)Nc1ccc(Cl)cc1` [Chlorhexidine], the MIC is 2 µg/mL (≈ 3.96 µM) with S. aureus SH1000 (setting [7]), 2 µg/mL (≈ 3.96 µM) in the test with S. aureus SH1000 (setting [3]), 1 µg/mL (≈ 1.98 µM) in test [1] (setting [8]) and 1 µg/mL (≈ 1.98 µM) in test [1] (setting [5]).

For `O=C(O)c1cn(C2CC2)c2cc(N3CCNCC3)c(F)cc2c1=O` [Ciprofloxacin], the MIC in the test on S. aureus SH1000 (setting [7]) worked out at 2 µg/mL (≈ 6.04 µM); in the test with S. aureus SH1000 (setting [3]), 2 µg/mL (≈ 6.04 µM); in test [1] (setting [8]), 4 µg/mL (≈ 12.1 µM); in test [1] (setting [5]), 4 µg/mL (≈ 12.1 µM).

Turning to `Cc1onc(-c2c(F)cccc2Cl)c1C(=O)N[C@@H]1C(=O)N2[C@@H]1SC(C)(C)[C@@H]2C(=O)O` [Flucloxacillin], the MIC amounted to 0.125 µg/mL (≈ 0.275 µM) with S. aureus SH1000 (setting [7]), 0.125 µg/mL (≈ 0.275 µM) against S. aureus SH1000 (setting [3]), 4 µg/mL (≈ 8.81 µM) in test [1] (setting [8]) and 4 µg/mL (≈ 8.81 µM) in test [1] (setting [5]).

On to `CC(=O)O[C@H]1C[C@@]2(C)[C@@H](C[C@@H](O)[C@H]3[C@@]4(C)CC[C@@H](O)[C@@H](C)[C@@H]4CC[C@@]32C)/C1=C(\CCC=C(C)C)C(=O)O` [Fusidic acid], for which the MIC was 0.25 µg/mL (≈ 0.484 µM) with S. aureus SH1000 (setting [7]), 0.25 µg/mL (≈ 0.484 µM) in the test on S. aureus SH1000 (setting [3]), 0.5 µg/mL (≈ 0.968 µM) in test [1] (setting [8]) and 0.5 µg/mL (≈ 0.968 µM) in test [1] (setting [5]).

Turning to `C[C@@H](O)[C@H]1C(=O)N2C(C(=O)O)=C(S[C@@H]3CN[C@H](C(=O)N(C)C)C3)[C@H](C)[C@H]12` [Meropenem], the MIC (with S. aureus SH1000 (setting [7]); in the test on S. aureus SH1000 (setting [3]); in test [1] (setting [8]); in test [1] (setting [5])) was 0.5 µg/mL (≈ 1.3 µM) throughout.

As to `C/C(=C\C(=O)OCCCCCCCCC(=O)O)C[C@@H]1OC[C@H](C[C@@H]2O[C@H]2[C@@H](C)[C@H](C)O)[C@@H](O)[C@H]1O` [Mupirocin], the MIC was 0.125 µg/mL (≈ 0.25 µM) in the test on S. aureus SH1000 (setting [7]), 0.125 µg/mL (≈ 0.25 µM) against S. aureus SH1000 (setting [3]), 0.25 µg/mL (≈ 0.499 µM) in test [1] (setting [8]) and 0.25 µg/mL (≈ 0.499 µM) in test [1] (setting [5]).

Take `CO[C@H]1/C=C/O[C@@]2(C)Oc3c(C)c(O)c4c(O)c(c(/C=N/N5CCN(C)CC5)c(O)c4c3C2=O)NC(=O)/C(C)=C\C=C\[C@H](C)[C@H](O)[C@@H](C)[C@@H](O)[C@@H](C)[C@H](OC(C)=O)[C@@H]1C` [Rifampin]: the MIC with S. aureus SH1000 (setting [7]) is 0.008 µg/mL (≈ 0.00972 µM); against S. aureus SH1000 (setting [3]) it was 0.008 µg/mL (≈ 0.00972 µM); in test [1] (setting [8]), 0.02 µg/mL (≈ 0.0243 µM); in test [1] (setting [5]) it was 0.03 µg/mL (≈ 0.0365 µM).

Turning to `CN(C)[C@@H]1C(O)=C(C(N)=O)C(=O)[C@@]2(O)C(O)=C3C(=O)c4c(O)cccc4[C@@](C)(O)[C@H]3C[C@@H]12` [Tetracycline], the MIC was 1 µg/mL (≈ 2.25 µM) with S. aureus SH1000 (setting [7]), 1 µg/mL (≈ 2.25 µM) against S. aureus SH1000 (setting [3]), 0.5 µg/mL (≈ 1.13 µM) in test [1] (setting [8]) and 0.5 µg/mL (≈ 1.13 µM) in test [1] (setting [5]).

Take Gentamycin: the MIC against S. aureus SH1000 (setting [2]) and against S. aureus SH1000 (setting [3]) was 0.5 µg/mL in each case. For the same compound, the bMIC in test [1] (setting [4]) and in test [1] (setting [5]) was 1 µg/mL in each case. The MBEC in test [1] (setting [6]) and in test [1] (setting [5]) was more than 256 µg/mL each time.
